Earlier results as cited in patent publication US20260048005A1, “INJECTABLE THERMOSENSITIVE HYDROGELS FOR A SUSTAINED RELEASE OF IRON NANOCHELATORS” (The General Hospital Corporation, priority 2022, published 2026).

Settings: in rodents

half-life: 5 to 15 min
Compound: CC(=O)N(O)CCCCCNC(=O)CCC(=O)N(O)CCCCCNC(=O)CCC(=O)N(O)CCCCCN [DFO, deferoxamine]
